From patent US20110091872A1, “DETECTING TRIAZOLE RESISTANCE IN ASPERGILLUS” (priority 2007, published 2011)
≈ marks a conversion by molar mass, not a printed value. Where two headings read alike, the source gives them in different places.

Tests used:
[1] = test system: A. fumigatus wild type strain ATCC 13073; assay: NCCLS M38-A microdilution MIC, parent strain ATCC 13073; format: cell-based; conditions: Aspergillus fumigatus, ATCC13073, RPMI 1640, 48 hours, 37° C.
Description: (§1) The eight putative C6 transcription factors (TFs) were amplified from a well-characterized itraconazole-resistant strain known to over-express ABC transporters. Nascimento et al. Antimicrob. Agents Chemother. (2003) 47:1719-26. The putative mutant TFs were introduced into a wild type recipient strain and transformants screened for resistance to 10 μg/mlitraconazole. Minimum inhibition concentrations (MICs) were determined by the National Committee for Clinical Laboratory Standards (NCCLS) M38-A microdilution method in RPMI 1640 medium in the presence of 0.01 to 16.0 μg/ml after 48 hours of growth at 37° C.

[2] = test system: AzRF1-M (homologous recombinant AzRF1-mutant of ATCC 13073); assay: NCCLS M38-A microdilution MIC, mutant AzRF1-M; format: cell-based, Aspergillus fumigatus; conditions: strain AzRF1-M, RPMI 1640, 48 hours, 37° C.
Description: as §1
(§2) Plasmid pRG3-AMA1-AzRF1 was transformed into the triazole susceptible Ku80 strain. The derived mutant AzRF1-A, containing the mutant AzRF1 in an autonomous replicating plasmid was also resistant to triazole drugs (table 2). […] Strain AzRF1-R had restored sensitivity to triazole drugs (table 2).

[3] = test system: KU80 DELTA (triazole susceptible Ku80 strain); assay: NCCLS M38-A microdilution MIC, parent strain KU80 DELTA; format: cell-based; conditions: Aspergillus fumigatus, 48 h
Description: as §1, §2

[4] = test system: AzRF1-H (homologous recombinant AzRF1-mutant of KU80); assay: NCCLS M38-A microdilution MIC, mutant AzRF1-H; format: cell-based; conditions: Aspergillus fumigatus; strain AzRF1-H; RPMI 1640, 48 hours, 37° C.
Description: as §1

[5] = test system: AzRF1-A (KU80 with mutant AzRF1 in autonomously replicating plasmid pRG3-AMA1-AzRF1); assay: NCCLS M38-A microdilution MIC, mutant AzRF1-A; format: cell-based; conditions: Aspergillus fumigatus; strain AzRF1-A; RPMI 1640, 48 hours, 37° C.
Description: as §1, §2

[6] = test system: AzRF1-R (derived from AzRF1-A after plasmid eviction); assay: NCCLS M38-A microdilution MIC, strain AzRF1-R; format: cell-based; conditions: Aspergillus fumigatus, 48 h
Description: as §1, §2

[7] = test system: wild type recipient strain transformed with mutant AzRF1; assay: NCCLS M38-A microdilution MIC, transformants carrying mutant TF AzRF1; format: cell-based; conditions: Aspergillus fumigatus, 48 h
Description: as §1
AzRF1 is a C6 transcription factor that is closely related to Tac1 of C. albicans with 35% sequence identity to the Tac1 proteins (GeneBank accession number ABD85289.1).

[8] = Aspergillus fumigatus, ATCC13073, read-out: MIC

Compound: CCC(C)n1ncn(-c2ccc(N3CCN(c4ccc(OCC5COC(Cn6cncn6)(c6ccc(Cl)cc6Cl)O5)cc4)CC3)cc2)c1=O (stereo not shown) [ITRACONAZOLE, itraconazole]
- MIC [1]: 0.25 µg/mL (≈ 0.354 µM)
- MIC [2, 8]: > 16 µg/mL
- MIC [2]: >16.0 µg/mL
- MIC [3]: 0.25 µg/mL (≈ 0.354 µM)
- MIC [4]: > 16 µg/mL
- MIC [5]: > 16 µg/mL
- MIC [6]: > 16 µg/mL
- MIC [7]: > 16 µg/mL

Compound: C[C@@H](c1ncncc1F)[C@](O)(Cn1cncn1)c1ccc(F)cc1F [VORICONAZOLE, voriconazole]
- MIC [1]: 0.06 µg/mL (≈ 0.172 µM)
- MIC [2, 8]: > 8 µg/mL
- MIC [2]: >8.0 µg/mL
- MIC [3]: 0.06 µg/mL (≈ 0.172 µM)
- MIC [4]: > 8 µg/mL
- MIC [5]: > 8 µg/mL
- MIC [6]: > 8 µg/mL
- MIC [7]: > 8 µg/mL
